According to patent publication US20050049210A1, “Methods for the controlled delivery of pharmacologically active compounds” (IDEXX Laboratories, Inc., priority 2003, published 2005):

Key:
[1] = Solubility of fatty acid salt in water immiscible solvent; type: physicochemical; settings: amine group neutralized with linoleic acid, in isopropyl myristate
Description: Oxytetracycline has one tertiary amine group, and the hydrochloride salt of oxytetracycline is readily soluble in water. Adding one mole of fatty acid to one mole of oxytetracycline creates a salt that is more soluble than unmodified oxytetracycline in isopropyl myristate.
When the two amine groups of tilmicosin are neutralized with any of several fatty acids (such as, for example, decanoic C10, lauric C12, myristic C14, palmitic C16, stearic C18, oleic C18, elaidic C18, linoleic C18, and erucic C22, sebacic, dodecanedioic), the resulting salt is soluble in pharmaceutically-acceptable water immiscible solvents. When a formulation of the salt (tilmicosin-linoleic acid) is sealed in a dialysis cassette and place in saline, the tilmicosin salt remains a cohesive mass, and tilmicosin is slowly released from the bag. The rate of release is a function of the chain length of the fatty acid, the solvent, and the tilmicosin-fatty acid salt concentration.
Roxithromycin is effective against a broad range of bacteria, and is used for the treatment of respiratory diseases in cattle. The amine group of roxithromycin can be neutralized with linoleic acid in isopropyl myristate, and a clear solution is obtained at 200 mg/ml.
Terbinafine is a specific inhibitor of squaline epoxidase, a key enzyme in fungal ergosterol biosynthesis. […]

[2] = Solubility of salt in water; type: physicochemical; settings: linoleic acid salt
Experimental: Terbinafine is a specific inhibitor of squaline epoxidase, a key enzyme in fungal ergosterol biosynthesis. The amine group of terbinafine was neutralized with linoleic acid in ispropyl myristate, resulting in a clear solution at 150 mg/ml.

[3] = test system: dogs; settings: tilmicosin in conventional form; cited from earlier work

Row | concentration at which a clear solution is obtained [1] | solubility of the resulting salt in water [2] | Compound | dose normally lethal in dogs [3]
1 | 200000 µg/mL |  | CC[C@H]1OC(=O)[C@H](C)[C@@H](OC2CC(C)(OC)C(O)C(C)O2)[C@H](C)[C@@H](OC2OC(C)CC(N(C)C)C2O)[C@](C)(O)C[C@@H](C)/C(=N\OCOCCOC)[C@H](C)[C@@H](O)[C@]1(C)O (stereo partly shown) [roxithromycin, Roxithromycin] | 
2 | 150000 µg/mL | highly insoluble | CN(C/C=C/C#CC(C)(C)C)Cc1cccc2ccccc12 [terbinafine, Terbinafine] | 
3 |  |  | Tilmicosin | 50 mg/kg
